Assays:
[1] = tested on: ACTH; experiment: ACTH analysis (plasma) in 13-week study; format: in vivo, cynomolgus monkeys
Experimental: Sample Collection for ACTH Analysis (Plasma): Blood samples (approximately 2.5 mL) were collected from all animals via the femoral vein for determination of the plasma concentrations of ACTH. The animals were fasted prior to blood collection except one deviation.

[2] = DVS water uptake of abiraterone decanoate forms; format: physicochemical; details: Forms A, B, and C
[3] = tested on: LH; experiment: LH analysis (serum) in 13-week study; format: in vivo, cynomolgus monkeys; parameters: LH: unit not given here
Experimental: Sample Collection for LH Analysis (Serum): Blood samples (approximately 2.5 mL) were collected from all animals via the femoral vein for determination of the serum concentrations of LH. The animals were fasted prior to blood collection except one deviation.

[4] = Toxicokinetics of abiraterone decanoate and abiraterone in 13-week study; format: in vivo, cynomolgus monkeys; details: for AUC(0-t) / Cmax: male, cynomolgus monkey, in vivo, im; for AUC(0-t): Abiraterone Decanoate plasma AUC0-[…] (mean); for Cmax: Abiraterone Decanoate plasma Cmax (mean)
Experimental: Toxicokinetic parameters were obtained for each animal on Days 1, 29, and 71. […] A single 144-hour sample was collected outside of the allowable window for timed collections from one Animal on Day 29 and the actual time for this time point was used in the toxicokinetic data analysis. Nominal time was used for graphic representation and concentration table generation. For each animal, the following toxicokinetic parameters were determined: maximum observed plasma concentration (Cmax), time of maximum observed plasma concentration (Tmax), and area under the plasma concentration-time curve (AUC).

[5] = molecular target: T1, CYP17A1 (Macaca fascicularis, UniProt Q2XVA1); experiment: PD (progesterone, cortisol, dihydrotestosterone, testosterone levels) in chemically castrated monkeys; format: in vivo, cynomolgus monkeys
T1 construct: endogenous in cells; host or cells: live male cynomolgus monkeys (in vivo; steroidogenic tissues)
T1 sequence (Q2XVA1 1-508): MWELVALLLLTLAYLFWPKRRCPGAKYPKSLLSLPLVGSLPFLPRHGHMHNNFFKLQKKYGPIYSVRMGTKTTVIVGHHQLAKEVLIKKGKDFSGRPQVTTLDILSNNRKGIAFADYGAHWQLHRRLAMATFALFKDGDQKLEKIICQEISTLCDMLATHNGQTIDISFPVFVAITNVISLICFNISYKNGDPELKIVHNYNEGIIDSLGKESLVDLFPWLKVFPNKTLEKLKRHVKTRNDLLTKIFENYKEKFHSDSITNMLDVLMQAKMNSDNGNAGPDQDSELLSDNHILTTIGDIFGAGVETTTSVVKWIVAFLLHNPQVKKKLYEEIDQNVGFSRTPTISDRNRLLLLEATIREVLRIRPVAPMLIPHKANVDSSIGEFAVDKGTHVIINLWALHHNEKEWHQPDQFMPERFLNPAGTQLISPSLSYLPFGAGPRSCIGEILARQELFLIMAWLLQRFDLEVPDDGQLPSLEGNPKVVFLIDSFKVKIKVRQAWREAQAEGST
Excerpt: The effects of administering dexamethasone and methylprednisolone acetate according to the schedule of this Example were also shown in FIGS. 5A, 5B, 5C, and 5D.

[6] = PK of single IM abiraterone decanoate in chemically castrated monkeys (abiraterone plasma); format: in vivo, cynomolgus monkeys; details: single IM 10 mg/kg

CCCCCCCCCC(=O)O[C@H]1CC[C@@]2(C)C(=CC[C@@H]3[C@@H]2CC[C@]2(C)C(c4cccnc4)=CC[C@@H]32)C1 [Abiraterone Decanoate, abiraterone decanoate]
ACTH fold change of treated group mean relative to pretreatment (Day −1) mean ([1]; 20 mg/kg/dose, Day 8): 1.72×
ACTH fold change of treated group mean relative to pretreatment (Day −1) mean ([1]; 20 mg/kg/dose, Day 15): 2.63×
ACTH fold change of treated group mean relative to pretreatment (Day −1) mean ([1]; 20 mg/kg/dose, Day 78): 2.30×*
ACTH fold change of treated group mean relative to pretreatment (Day −1) mean ([1]; 20 mg/kg/dose, Day 85): 1.89×*
ACTH fold change of treated group mean relative to pretreatment (Day −1) mean ([1]; 60 mg/kg/dose, Day 8): 2.55×*
ACTH fold change of treated group mean relative to pretreatment (Day −1) mean ([1]; 60 mg/kg/dose, Day 15): 2.35×*
ACTH fold change of treated group mean relative to pretreatment (Day −1) mean ([1]; 60 mg/kg/dose, Day 78): 1.33×*
ACTH fold change of treated group mean relative to pretreatment (Day −1) mean ([1]; 60 mg/kg/dose, Day 85): 1.36×*
ACTH fold change of treated group mean relative to pretreatment (Day −1) mean ([1]; 200 mg/kg/dose, Day 8): 4.90×*
ACTH fold change of treated group mean relative to pretreatment (Day −1) mean ([1]; 200 mg/kg/dose, Day 15): 5.14×*
ACTH fold change of treated group mean relative to pretreatment (Day −1) mean ([1]; 200 mg/kg/dose, Day 78): 4.65×*
ACTH fold change of treated group mean relative to pretreatment (Day −1) mean ([1]; 200 mg/kg/dose, Day 85): 4.66×*
ACTH concentrations ([1]; males at ≥20 mg/kg/dose): increases
DVS Max H2O uptake [2]: N/A-non-hygroscopic
LH ([3]; 20 mg/kg, N 4, Day 8): 1.67
LH ([3]; 20 mg/kg, N 4, Day 15): 1.67
LH ([3]; 20 mg/kg, N 4, Day 78): 5.67
LH ([3]; 20 mg/kg, N 4, Day 85): 3.12
LH ([3]; 60 mg/kg, N 4, Day 8): 2.78
LH ([3]; 60 mg/kg, N 4, Day 15): 2.73
LH ([3]; 60 mg/kg, N 4, Day 78): 7.12
LH ([3]; 60 mg/kg, N 4, Day 85): 7.07
LH ([3]; 200 mg/kg, N 6, Day 8): 1.98
LH ([3]; 200 mg/kg, N 6, Day 15): 2.33
LH ([3]; 200 mg/kg, N 6, Day 78): 5.04
LH ([3]; 200 mg/kg, N 6, Day 85): 5.27
LH concentrations ([3]; following abiraterone decanoate administration): no clear effects
plasma exposures to abiraterone (Cmax and AUC) compared with oral abiraterone acetate toxicology studies ([4]; IM administration, cynomolgus monkeys): lower than levels achieved in toxicology studies with abiraterone acetate
AUC(0-t) ([4]; 20 mg/kg): 0.888 µg·h/mL
AUC(0-t) ([4]; 60 mg/kg): 2.04 µg·h/mL
AUC(0-t) ([4]; 200 mg/kg): 13.1 µg·h/mL
Cmax ([4]; 200 mg/kg): 0.0666 µg/mL
Cmax ([4]; cynomolgus, 20 mg/kg): 0.00627 µg/mL
AUC(0-t) ([4]; cynomolgus, 60 mg/kg): 2.19 µg·h/mL
Cmax ([4]; cynomolgus, 60 mg/kg): 0.0158 µg/mL
AUC(0-t) ([4]; cynomolgus, 200 mg/kg): 12.4 µg·h/mL
Cmax ([4]; cynomolgus, 200 mg/kg): 0.0713 µg/mL
PD effects relative to abiraterone plasma concentration ([5]; 10 mg/kg dosing group): prolonged PD effects were observed even after abiraterone plasma concentration dropped below 1 ng/mL
progesterone, cortisol, dihydrotestosterone and testosterone levels ([5]; single dose IM, all three doses): sustained increase of progesterone level and reduction of cortisol, dihydrotestosterone, and testosterone level
duration of CYP17A1 inhibition ([5]; single dose IM, all three doses (10, 30, 100 mg/kg)): ≥ 70 days
abiraterone in the plasma at Day 70 [6]: measurable

Reference: patent US11957696B2 (Propella Therapeutics, Inc., priority 2021, dated 2024)
